Measurements as given in patent publication US10428083B2, “Heterocyclylmethyl-thienouracile as antagonists of the adenosine-A2B-receptor” (BAYER PHARMA AKTIENGESELLSCHAFT, priority 2015, dated 2019).

Molecular target: human adenosine A2b receptor (Homo sapiens (Human), UniProt P29275)
Experiment: Cellular in vitro reporter gene test for A2b receptor activity (CHO-K1, CRE-luciferase, NECA stimulation)
Format: cell-based
Settings: recombinant CHO-K1 cell line, CRE-luciferase reporter, antagonism of EC50 concentration of NECA; in some cases means of several determinations, rounded to two significant figures; read-out: A2b receptor IC50
Procedure, shortened: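 CHO-K1 cells with CRE-driven luciferase; antagonists co-incubated with NECA at its EC50, determined in a pre-experiment on each test day. Luciferase read by luminescence 3 h after NECA addition.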

Chain of human adenosine A2b receptor (P29275 whole entry): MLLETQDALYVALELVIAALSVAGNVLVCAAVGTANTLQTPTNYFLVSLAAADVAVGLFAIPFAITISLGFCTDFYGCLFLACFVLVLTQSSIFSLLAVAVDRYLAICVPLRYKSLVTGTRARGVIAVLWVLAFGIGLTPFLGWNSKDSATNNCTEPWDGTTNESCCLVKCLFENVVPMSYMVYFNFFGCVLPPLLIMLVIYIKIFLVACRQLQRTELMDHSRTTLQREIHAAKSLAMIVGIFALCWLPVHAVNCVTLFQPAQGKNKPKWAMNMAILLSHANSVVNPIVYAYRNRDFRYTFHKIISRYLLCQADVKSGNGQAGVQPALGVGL

SMILES	IC50 [nM]
COCCn1c(=O)n(CCC(F)=C(F)F)c(=O)c2c(C)c(CN3CCNC3=O)sc21 [Example 321, 1-(2-Methoxyethyl)-5-methyl-6-[(2-oxoimidazolidin-1-yl)methyl]-3-(3,4,4-trifluorobut-3-en-1-yl)thieno[2,3-d]pyrimidine-2,4(1H,3H)-dione]	1.6
Cc1c(CN2CCN(C)C2=O)sc2c1c(=O)n(CC(F)(F)F)c(=O)n2CCC(F)(F)F [Example 336, 5-Methyl-6-[(3-methyl-2-oxoimidazolidin-1-yl)methyl]-3-(2,2,2-trifluoroethyl)-1-(3,3,3-trifluoropropyl)thieno[2,3-d]pyrimidine-2,4(1H,3H)-dione]	8.7
COCCn1c(=O)n(CCC(F)(F)F)c(=O)c2c(C)c(CN3CCN(C)C3=O)sc21 [Example 337, 1-(2-Methoxyethyl)-5-methyl-6-[(3-methyl-2-oxoimidazolidin-1-yl)methyl]-3-(3,3,3-trifluoropropyl)thieno[2,3-d]pyrimidine-2,4(1H,3H)-dione]	280
COC(C)(C)Cn1c(=O)c2c(C)c(CN3CCN(C)C3=O)sc2n(CCC(F)(F)F)c1=O [Example 338, 3-(2-Methoxy-2-methylpropyl)-5-methyl-6-[(3-methyl-2-oxoimidazolidin-1-yl)methyl]-1-(3,3,3-trifluoropropyl)thieno[2,3-d]pyrimidine-2,4(1H,3H)-dione]	120
Cc1c(Cn2cc[nH]c2=O)sc2c1c(=O)n(CC(F)(F)F)c(=O)n2CCC(F)(F)F [Example 339, 5-Methyl-6-[(2-oxo-2,3-dihydro-1H-imidazol-1-yl)methyl]-3-(2,2,2-trifluoroethyl)-1-(3,3,3-trifluoropropyl)thieno[2,3-d]pyrimidine-2,4(1H,3H)-dione]	5.6
COCCn1c(=O)c2c(C)c(Cn3cc[nH]c3=O)sc2n(CCC(F)(F)F)c1=O [Example 344, 3-(2-Methoxyethyl)-5-methyl-6-[(2-oxo-2,3-dihydro-1H-imidazol-1-yl)methyl]-1-(3,3,3-trifluoropropyl)thieno[2,3-d]pyrimidine-2,4(1H,3H)-dione]	8.5
COCCn1c(=O)c2c(C)c(Cn3cc[nH]c3=O)sc2n(CCOC)c1=O [Example 345, 1,3-Bis(2-methoxyethyl)-5-methyl-6-[(2-oxo-2,3-dihydro-1H-imidazol-1-yl)methyl]thieno[2,3-d]pyrimidine-2,4(1H,3H)-dione]	17
C=CCn1cnn(Cc2sc3c(c2C)c(=O)n(CC)c(=O)n3CF)c1=O [Example 349, 6-[(4-Allyl-5-oxo-4,5-dihydro-1H-1,2,4-triazol-1-yl)methyl]-3-ethyl-1-(fluoromethyl)-5-methylthieno[2,3-d]pyrimidine-2,4(1H,3H)-dione]	630
CCCn1cnn(Cc2sc3c(c2C)c(=O)n(CC)c(=O)n3CCC(F)(F)F)c1=O [Example 355, 3-Ethyl-5-methyl-6-[(5-oxo-4-propyl-4,5-dihydro-1H-H-1,2,4-triazol-1-yl)methyl]-1-(3,3,3-trifluoropropyl)thieno[2,3-d]pyrimidine-2,4(1H,3H)-dione]	99
Cc1c(CN2CCNC2=NC#N)sc2c1c(=O)n(CC(F)(F)F)c(=O)n2CCC(F)(F)F [Example 358, [1-{[5-Methyl-2,4-dioxo-3-(2,2,2-trifluoroethyl)-1-(3,3,3-trifluoropropyl)-1,2,3,4-tetrahydrothieno[2,3-d]pyrimidin-6-yl]methyl}imidazolidin-2-ylidene]cyanamide]	12

Continued by falling IC50, values first:

IC50 [nM]	SMILES
270	COCCn1c(=O)n(CC2COC2)c(=O)c2c(C)c(CN3CCNC3=O)sc21 [Example 335, 1-(2-Methoxyethyl)-5-methyl-3-(oxetan-3-ylmethyl)-6-[(2-oxoimidazolidin-1-yl)methyl]thieno[2,3-d]pyrimidine-2,4(1H,3H)-dione]
210	C=CCn1cnn(Cc2sc3c(c2C)c(=O)n(CC)c(=O)n3CCCF)c1=O [Example 350, 6-[(4-Allyl-5-oxo-4,5-dihydro-1H-1,2,4-triazol-1-yl)methyl]-3-ethyl-1-(3-fluoropropyl)-5-methylthieno[2,3-d]pyrimidine-2,4(1H,3H)-dione]
120	CCn1c(=O)c2c(C)c(Cn3nc[nH]c3=O)sc2n(CCCOC)c1=O [Example 354, 3-Ethyl-1-(3-methoxypropyl)-5-methyl-6-[(5-oxo-4,5-dihydro-1H-1,2,4-triazol-1-yl)methyl]thieno[2,3-d]pyrimidine-2,4(1H,3H)-dione]
48	CCn1c(=O)c2c(C)c(Cn3nc[nH]c3=O)sc2n(CF)c1=O [Example 352, 3-Ethyl-1-(fluoromethyl)-5-methyl-6-[(5-oxo-4,5-dihydro-1H-1,2,4-triazol-1-yl)methyl]thieno[2,3-d]pyrimidine-2,4(1H,3H)-dione]
40	CCOCCn1c(=O)c2c(C)c(CN3CCNC3=O)sc2n(CCOC)c1=O [Example 327, 3-(2-Ethoxyethyl)-1-(2-methoxyethyl)-5-methyl-6-[(2-oxoimidazolidin-1-yl)methyl]thieno[2,3-d]pyrimidine-2,4(1H,3H)-dione]
37	Cc1c(CN2CCNC2=NC#N)sc2c1c(=O)n(CC(F)(F)F)c(=O)n2CC1CCO1 (stereo not shown) [Example 359, [1-{[5-Methyl-1-(oxetan-2-ylmethyl)-2,4-dioxo-3-(2,2,2-trifluoroethyl)-1,2,3,4-tetrahydrothieno[2,3-d]pyrimidin-6-yl]methyl}imidazolidin-2-ylidene]cyanamide]
31	CCn1c(=O)c2c(C)c(Cn3nc[nH]c3=O)sc2n(CCCF)c1=O [Example 353, 3-Ethyl-1-(3-fluoropropyl)-5-methyl-6-[(5-oxo-4,5-dihydro-1H-1,2,4-triazol-1-yl)methyl]thieno[2,3-d]pyrimidine-2,4(1H,3H)-dione]
19	COCCCn1c(=O)c2c(C)c(CN3CCNC3=O)sc2n(CCOC)c1=O [Example 328, 1-(2-Methoxyethyl)-3-(3-methoxypropyl)-5-methyl-6-[(2-oxoimidazolidin-1-yl)methyl]thieno[2,3-d]pyrimidine-2,4(1H,3H)-dione]
18	COCCn1c(=O)n(CC(F)(F)F)c(=O)c2c(C)c(Cn3cc[nH]c3=O)sc21 [Example 340, 1-(2-Methoxyethyl)-5-methyl-6-[(2-oxo-2,3-dihydro-1H-imidazol-1-yl)methyl]-3-(2,2,2-trifluoroethyl)thieno[2,3-d]pyrimidine-2,4(1H,3H)-dione]
10	CCOCCn1c(=O)c2c(C)c(CN3CCNC3=O)sc2n(CCC(F)(F)F)c1=O [Example 326, 3-(2-Ethoxyethyl)-5-methyl-6-[(2-oxoimidazolidin-1-yl)methyl]-1-(3,3,3-trifluoropropyl)thieno[2,3-d]pyrimidine-2,4(1H,3H)-dione]
9.4	COCCn1c(=O)c2c(C)c(CN3CCNC3=NC#N)sc2n(CCC(F)(F)F)c1=O [Example 362, [1-{[3-(2-Methoxyethyl)-5-methyl-2,4-dioxo-1-(3,3,3-trifluoropropyl)-1,2,3,4-tetrahydrothieno[2,3-d]pyrimidin-6-yl]methyl}imidazolidin-2-ylidene]cyanamide]
1.3	COCCn1c(=O)n(CCC=C(F)F)c(=O)c2c(C)c(CN3CCNC3=O)sc21 [Example 322, 3-(4,4-Difluorobut-3-en-1-yl)-1-(2-methoxyethyl)-5-methyl-6-[(2-oxoimidazolidin-1-yl)methyl]thieno[2,3-d]pyrimidine-2,4(1H,3H)-dione]
